Series [1] has as its target Lysophosphatidic acid receptor 1 (Homo sapiens, UniProt Q92633).
Description: Antagonist activity at human LPA1 receptor expressed in CHO cells assessed as inhibition of LPA-induced calcium mobilization pretreated for 15 mins followed by LPA stimulation by FLIPR analysis
Series [2] concerns the target Lysophosphatidic acid receptor 2 (Homo sapiens, UniProt Q9HBW0).
Description: Antagonist activity at human LPA2 receptor expressed in CHO cells assessed as inhibition of LPA-induced calcium mobilization pretreated for 15 mins followed by LPA stimulation by FLIPR analysis
Series [3] can be described thus: in vitro. The note with it: human, liver microsomes, CLH. In general terms: Liver microsomes are vesicles of endoplasmic reticulum, rich in cytochrome P450 enzymes.
Description: Intrinsic clearance in human liver microsomes at 0.5 uM in presence of NADPH regenerating system measured for 45 mins per mg protein by LC-MS/MS analysis
A short description of series [4]: in vitro. The note with it: C57BL/6J, mouse, liver microsomes.
Description: Intrinsic clearance in C57BL/6J mouse liver microsomes at 0.5 uM in presence of NADPH regenerating system measured for 45 mins per mg protein by LC-MS/MS analysis
Series [5] addresses Lysophosphatidic acid receptor 2 (Mus musculus, UniProt Q9JL06). The series can be described thus: Antagonist activity at mouse LPA2 receptor expressed in HeLa cells assessed as inhibition of LPA-induced calcium mobilization pretreated for 15 mins followed by LPA stimulation by FLIPR analysis. Type of series: functional, cell-based. For orientation: A change in cytosolic calcium serves as a functional read-out for many receptors and channels.

Series [6] in a line: Efflux ratio of apparent permeability across apical to basolateral to basolateral to apical side in human Caco-2 cells at 10 uM measured after 60 mins by LC-MS/MS analysis.
The nature of series [7]: in vivo. The note with it: C57BL/6J, mouse, lung, po, 30 mg/kg.
Series [8] in a line: in vivo. The conditions noted are these: C57BL/6J, mouse, plasma, po, 30 mg/kg.
A short description of series [9]: in vivo. The note with it: C57BL/6J, mouse, lung, po, 30 mg/kg. The source holds these as a separate data set.
A short description of series [10]: in vivo. The note with it: C57BL/6J, mouse, po, 30 mg/kg.
A short description of series [11]: Protein binding in mouse lungs assessed as fraction unbound at 5 uM measured after 5 hrs by LC-MS/MS analysis.
Series [12] can be described thus: Apparent permeability across apical to basolateral side in human Caco-2 cells at 10 uM measured after 60 mins by LC-MS/MS analysis.
A short description of series [13]: Oral absorption in C57BL/6J mouse at 30 mg/kg by LC-MS/MS analysis. The note with it: in vivo.
Series [14] in a line: Protein binding in mouse plasma assessed as fraction unbound at 0.5 uM measured after 5 hrs by LC-MS/MS analysis.
The nature of series [15]: Half life in C57BL/6J mouse at 30 mg/kg, po and 2 mg/kg, iv by LC-MS/MS analysis. The conditions noted are these: in vivo.
Series [16] is described as follows: in vivo. The note with it: C57BL/6J, mouse, plasma, po, 30 mg/kg. The source holds these as a separate data set.
Series [17] in a line: Apparent permeability across basolateral to apical side in human Caco-2 cells at 10 uM measured after 60 mins by LC-MS/MS analysis. For orientation: Caco-2 cells form a polarised layer with tight junctions and transporters.
The nature of series [18]: Protein binding in human plasma assessed as fraction unbound at 0.5 uM measured after 5 hrs by LC-MS/MS analysis.

Data on 11 compounds can be found in ChEMBL document CHEMBL5385906, “Discovery of a Potent, Selective, and Orally Bioavailable Tool Compound for Probing the Role of Lysophosphatidic Acid Type 2 Receptor Antagonists in Fibrotic Disorders” (J Med Chem, 2023).

Sequence of Lysophosphatidic acid receptor 1 (Q92633 whole entry): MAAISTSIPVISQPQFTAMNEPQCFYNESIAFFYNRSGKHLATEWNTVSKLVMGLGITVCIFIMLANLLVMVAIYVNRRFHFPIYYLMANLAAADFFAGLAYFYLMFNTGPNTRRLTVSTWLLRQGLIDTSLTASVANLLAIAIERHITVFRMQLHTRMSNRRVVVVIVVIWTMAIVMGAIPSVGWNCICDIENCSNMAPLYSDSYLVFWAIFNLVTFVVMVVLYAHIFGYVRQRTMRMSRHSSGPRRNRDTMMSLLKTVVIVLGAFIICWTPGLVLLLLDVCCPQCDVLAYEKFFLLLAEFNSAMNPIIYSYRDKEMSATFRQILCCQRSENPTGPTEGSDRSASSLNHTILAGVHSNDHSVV
Sequence of Lysophosphatidic acid receptor 2 (Homo sapiens, UniProt Q9HBW0) (Q9HBW0 whole entry): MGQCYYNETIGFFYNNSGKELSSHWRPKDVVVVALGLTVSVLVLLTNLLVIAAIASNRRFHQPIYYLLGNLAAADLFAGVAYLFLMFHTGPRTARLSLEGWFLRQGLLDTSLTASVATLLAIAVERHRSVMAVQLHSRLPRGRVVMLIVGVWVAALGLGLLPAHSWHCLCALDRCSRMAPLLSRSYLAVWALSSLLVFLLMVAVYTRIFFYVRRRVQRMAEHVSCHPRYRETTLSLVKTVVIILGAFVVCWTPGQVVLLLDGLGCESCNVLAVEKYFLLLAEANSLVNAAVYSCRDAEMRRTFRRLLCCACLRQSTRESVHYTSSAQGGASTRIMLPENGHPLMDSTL
Sequence of Lysophosphatidic acid receptor 2 (Mus musculus, UniProt Q9JL06) (Q9JL06 whole entry): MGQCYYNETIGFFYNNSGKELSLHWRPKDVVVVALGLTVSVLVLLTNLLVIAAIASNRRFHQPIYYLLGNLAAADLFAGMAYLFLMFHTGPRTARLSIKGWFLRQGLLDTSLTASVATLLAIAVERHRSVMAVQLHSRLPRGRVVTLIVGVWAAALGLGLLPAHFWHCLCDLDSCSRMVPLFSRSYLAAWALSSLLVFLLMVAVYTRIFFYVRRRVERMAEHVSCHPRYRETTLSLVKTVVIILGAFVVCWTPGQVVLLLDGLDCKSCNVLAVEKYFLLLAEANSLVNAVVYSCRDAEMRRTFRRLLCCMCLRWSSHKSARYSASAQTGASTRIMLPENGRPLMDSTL

As a reminder, the microsomal CLint is the rate of metabolic loss divided by the concentration. As for `CC(CN1CCN(S(=O)(=O)c2ccc(Cl)c(Cl)c2)CC1)Nc1ncnc2c(-c3ccccc3)csc12` (racemic), the IC50 in series [1] is > 50.1 µM; in [2], 3.47 µM. In addition, the microsomal CLint at 0.75 h, 0.5 µM in “in vitro [3]” worked out at 228 µL/min/mg; in “in vitro [4]”, 270 µL/min/mg.
For the compound `COC(=O)Nc1nc(C)c(S(=O)(=O)N2CCN(C[C@H](C)Nc3ncnc4c(C(=O)N(C)C)cccc34)CC2)s1`, the IC50 in series [5] (read-out: pIC50 (converted)) is 3.98 µM.
As usually defined, the efflux ratio is the permeability from basolateral to apical divided by that in the opposite direction, in the common usage. One may read the AUC(0-t) as exposure summed from dosing to a finite time, without extrapolation to infinity. A higher AUC(0-t) goes with more exposure. By Cmax is commonly meant the peak of the concentration-time curve. What is called bioavailability is the share of a dose that reaches the circulation, judged against a reference dose that is usually intravenous. A high value points to much systemic uptake. By fraction unbound is commonly meant free concentration divided by total concentration. As a reminder, the Papp A→B is how fast a substance crosses the layer from the apical side. For orientation: half-life means how long it takes for the measured level to halve. As a reminder, the Papp B→A is the apparent permeability from the basolateral to the apical side of a cell layer. On to `COC(=O)Nc1nc(C)c(S(=O)(=O)N2CCN(C[C@H](C)Nc3ncnc4c(-c5cccnc5C)cccc34)CC2)s1`, for which, in series [6], the efflux ratio at 1 h, 10 µM stood at 2.7. Besides, the AUC(0-t) in “in vivo [7]” came out at 24300 ng·h/mL; in the series “in vivo [8]”, 163000 ng·h/mL. The IC50 in series [1] was > 50.1 µM; in [2], 0.000447 µM; in series [5] (read-out: pIC50 (converted)), 0.00646 µM. The Cmax stood at 8450 ng/mL in “in vivo [9]” and 81200 ng/mL in “in vivo [16]”. Also, the bioavailability in “in vivo [10]” was determined as 67%. Besides, the fraction unbound at 5 h, 5 µM in series [11] is 0.0531. Further, the results for the microsomal CLint at 0.75 h, 0.5 µM in the series “in vitro [3]” and in the series “in vitro [4]” were 21 µL/min/mg and 13 µL/min/mg, respectively. Besides, the Papp A→B at 1 h, 10 µM in series [12] is 4.17 ×10⁻⁶ cm/s. Moreover, the Fa in series [13] stood at 76%. Moreover, the fraction unbound at 5 h, 0.5 µM in series [14] is 0.0616. The compound also had a half-life in series [15] of 1.74 h. Also, the Papp B→A at 1 h, 10 µM in series [17] stood at 11.2 ×10⁻⁶ cm/s.
Turning to `COC(=O)Nc1nc(C)c(S(=O)(=O)N2CCN(C[C@H](C)Nc3ncnc4c(-c5cccc(CN6CCCC6)c5)cccc34)CC2)s1`, the efflux ratio at 1 h, 10 µM in series [6] was 98.1. The AUC(0-t) in the series “in vivo [7]” is 19500 ng·h/mL; in “in vivo [8]”, 12900 ng·h/mL. The IC50 was > 50.1 µM in [1], 0.000282 µM in series [2] and 0.00457 µM in series [5] (read-out: pIC50 (converted)). Besides, the Cmax in the series “in vivo [9]” is 2680 ng/mL; in the series “in vivo [16]”, 4230 ng/mL. For the same compound, the bioavailability in “in vivo [10]” was found to be 7%. Besides, the fraction unbound at 5 h, 5 µM in [11] came out at 0.0187. The microsomal CLint at 0.75 h, 0.5 µM came to 104 µL/min/mg in the series “in vitro [3]” and 133 µL/min/mg in “in vitro [4]”. Moreover, the Papp A→B at 1 h, 10 µM in series [12] is 0.09 ×10⁻⁶ cm/s. Further, in series [13], the Fa was 9%. In addition, the results for the fraction unbound at 5 h, 0.5 µM in series [18] and in series [14] were < 0.01 and 0.0059, respectively. Moreover, the half-life in series [15] is 2.45 h. In addition, in series [17], the Papp B→A at 1 h, 10 µM was determined as 8.95 ×10⁻⁶ cm/s.
As for `Cc1csc2c(N[C@@H](C)CN3CC4CC3CN4S(=O)(=O)c3ccc(Cl)c(Cl)c3)ncnc12` (stereo not given in full), the values for the IC50 in [1] and in [2] were 18.2 µM and 11.2 µM, respectively.
For `CC(=O)Nc1ccc(S(=O)(=O)N2CCN(C[C@H](C)Nc3ncnc4c(C)csc34)CC2)cn1` the same measures were > 50.1 µM and 13.8 µM.
`COC(=O)Nc1nc(C)c(S(=O)(=O)N2CCN(C[C@H](C)Nc3ncnc4c(-c5ccc(F)c(CN(C)C)c5)cccc34)CC2)s1`: the figures for the IC50 in series [1] and in [5] (read-out: IC50) were > 50.1 µM and 0.00646 µM, respectively.
Regarding `Cc1cc2ncnc(NC(C)CN3CCN(S(=O)(=O)c4ccc(Cl)c(Cl)c4)CC3)c2s1` (racemic), the results for the IC50 in series [1] and in [2] were 10.5 µM and 13.5 µM, respectively.
For the compound `COC(=O)Nc1nc(C)c(S(=O)(=O)N2CCN(C[C@H](C)Nc3ncnc4c(-c5cccnc5)cccc34)CC2)s1`, the values for the IC50 in series [1] and in [5] (read-out: pIC50 (converted)) were > 5.01 µM and 0.00257 µM, respectively.
As for `COC(=O)Nc1nc(C)c(S(=O)(=O)N2CCN(C[C@H](C)Nc3ncnc4c(-c5ccc(CN6CCCC6)cc5)cccc34)CC2)s1`, in series [5] (read-out: pIC50 (converted)), the IC50 was 0.0174 µM.
Consider `Cc1cccc2c(NC(C)CN3CCN(S(=O)(=O)c4ccc(Cl)c(Cl)c4)CC3)ncnc12` (stereo in doubt; 42b), for which the IC50 is 12.6 µM in series [1] and 4.17 µM in series [2]. The figures for the microsomal CLint at 0.75 h, 0.5 µM in the series “in vitro [3]” and in “in vitro [4]” were 789 µL/min/mg and 698 µL/min/mg, respectively.
